We go through two molecules from patent EP1902732A1, “PROPHYLACTIC/THERAPEUTIC AGENT FOR HER2-EXPRESSING CANCER” (Takeda Pharmaceutical Company Limited, priority 2005, dated 2006).

Format in all cases: cell-based, human
Test [1] has as its system HER2. Nature of the test: Western blotting of phosphorylated HER2 in BT-474 cells. On the procedure: Human HER2-expressing human breast cancer cell line BT-474 (purchased from American Tissue Culture Collection (ATCC)) was seeded into a 24-multiwell plate (BT-474: 1.2 x 10^5 cells/well), and cultured overnight in a carbon dioxide gas incubator (5% CO2, 37°C). A 4-fold dilution series of a mitochondrial respiratory chain complex inhibiting compound (complex I: rotenone, complex III: antimycin, complex V: oligomycin: Wako Pure Chemical Industries) was added starting from a final concentration of 1 µmol/L in 5 steps while continuing culture. After 2 hours, the broth was removed, and the cells were lysed with an SDS sample buffer (200 µL). Western blotting analysis was performed as follows. Specifically, this cell lysate (8 µL) was separated by an SDS-PAGE method (gel concentration: 7.5-15%) (Analytical Biochemistry, No. 166, pp. 368-379, 1987), and transferred to a nitrocellulose membrane (BioRad). Then, an antibody specific to phosphorylated HER2 (Cell signaling technology, Code# 2244), an anti-phosphorylated Akt antibody specific to downstream antiapoptotic signal transducing molecule Akt (Cell signaling technology, Code# 9271) and an anti-phosphorylated MAPK antibody specific to downstream proliferation signal transducing molecule MAPK (Cell signaling technology, Code# 9101) were used to detect the antibody with an ECL system (Amersham) to quantify the amount of phosphorylated protein by an image analysis.
Human HER2-expressing human cancer cell line BT-474 (purchased from ATCC) was seeded into a 24-multiwell plate (1.2 x 10^5 cells/well) and cultured overnight in a carbon dioxide gas incubator (20% O2, 5% CO2, 37°C). A 3-fold dilution series of metformin that activates AMPK (The Journal of Biological Chemistry, Vol. 279, No. 42, pp. 43940-43951, 2004) was added starting from a final concentration of 15 mmol/L in 5 steps while continuing culture. Two hours later, the broth was removed and the cells were lysed with an SDS sample buffer (200 µL). This cell lysate (8 µL) was separated by an SDS-PAGE method (gel concentration: 7.5-15%) (Analytical Biochemistry, No. 166, pp. 368-379, 1987). Then, western blotting analysis was performed in the same manner as in Example 1 to quantify phosphorylated HER2, phosphorylated Akt and phosphorylated MAPK.
Human HER2-expressing human breast cancer cell line BT-474 (purchased from American Tissue Culture Collection (ATCC)) was seeded into a 24-multiwell plate (BT-474: 1.2 x 10^5 cells/well), and cultured overnight in a carbon dioxide gas incubator (5% CO2, 37°C). Mitochondrial respiratory chain complex 1-inhibiting compound rotenone (Wako Pure Chemical Industries) was added in 5 steps at final concentrations of 1, 0.333, 0.111, 0.033 and 0.011 µmol/L while continuing culture. Two hours later, the broth was removed and the cells were lysed with an SDS sample buffer (200 µL). Then, this cell lysate was used to perform western blotting analysis. Specifically, this cell lysate (8 µL) was separated by an SDS-PAGE method (gel concentration: 7.5-15%) (Analytical Biochemistry, No. 166, pp. 368-379, 1987) and transferred to a nitrocellulose membrane (BioRad). Then, an antibody specific to phosphorylated HER2 (Cell signaling technology, Code# 2244), an AMPK antibody specific to AMPK (Cell signaling technology, Code# 2535) and an anti-phosphorylated AMPK antibody specific to phosphorylated AMPK (Cell signaling technology, Code# 2532) were used to detect the antibody by chemiluminescent detection with an ECL system (Amersham) to quantify an amount of phosphorylated protein with LAS-1000 plus image analysis device (FUJIFILM).
Human HER2-expressing human breast cancer cell line BT-474 (purchased from American Tissue Culture Collection (ATCC)) was seeded into a 24-multiwell plate (BT-474: 1.2 x 10^5 cells/well) and cultured overnight in a carbon dioxide gas incubator (5% CO2, 37°C). […]
In general terms: A western blot detects proteins with antibodies after separation by electrophoresis.

In test [2] the test system is BT-474 breast cancer cell. In words: Viable cell count using Cell Counting Kit-F. To be noted: BT474; HER2-expressing cancer; five days of culture. How it is done: (§1) BT-474 breast cancer cell, MDA-MB-453 breast cancer cell, A549 non-small cell lung cancer cell and LNCaP prostate cancer cell were used as human HER2-expressing cells while MDA-MB-231 breast cancer cell and A498 kidney cancer cell (all purchased from ATCC) were used as HER2-nonexpressing cells. Each of the cells used had been seeded into a 96-plate at 500cells/150 µL/well and cultured overnight. Each of the compounds, i.e., antimycin (final concentrations: 1, 0.1, 0.01 and 0.001 µmol/L), 2,4-dinitrophenol (final concentrations: 0.6, 0.2, 0.06 and 0.02 mmol/L), metformin (final concentrations: 25, 5, 1 and 0.2 mmol/L) and AICAR (final concentrations: 25, 5, 1 and 0.2 mmol/L) was diluted with a medium and added for 50 µL/well at a time to the final concentrations mentioned above. Following five days of culture at 37°C in 5% CO2, the cells were counted using Cell Counting Kit-F (Dojindo Laboratories).
(§2) Viable cell count using Cell Counting Kit-F was carried out by the following method according to the attached instruction. The supernatant was removed from the 96-well plate after five days of culture. Cell Counting Kit-F diluted 1000-fold with an RPMI medium (phenol red-free, serum-free) was added for 100 µL/well at a time. After 30 minutes of reaction at room temperature, fluorescence (excitation wavelength; 480 nm, fluorescent wavelength; 530 nm) was determined with a fluorescent plate reader.
(§3) From the determination results, percentage of the fluorescence level in the wells added with the compound was determined assuming that the fluorescence level in the wells without the addition of the compound (control) is 100%, and the remaining cellular quantity was determined in % with respect to that of the control.
(§4) BT-474 breast cancer cell, MDA-MB-453 breast cancer cell and LNCaP prostate cancer cell were used as human HER2-expressing cells while MDA-MB-231 breast cancer cell and A498 kidney cancer cell (all purchased from ATCC) were used as HER2-nonexpressing cells. Each of the cells used had been seeded into a 96-well plate at 500 cells/150 µL/well and cultured overnight. Troglitazone (final concentrations: 25, 6.25 and 1.56 µmol/L) was diluted with a medium, and added for 50 µL/well at a time to the final concentrations mentioned above. Following five days of culture at 37°C in 5% CO2, the cells were counted using Cell Counting Kit-F (Dojindo Laboratories).
(§5) From the determination results, percentage of the fluorescence level in the wells added with troglitazone was determined assuming that the fluorescence level in the wells without the addition of troglitazone (control) is 100%, and the remaining cellular quantity was determined in % with respect to that of the control.

Test [3] has as its system LNCaP prostate cancer cell. Nature of the test: Viable cell count using Cell Counting Kit-F. The note with it: LNCaP; HER2-expressing cancer; five days of culture. On the procedure: as §1, §2, §3, §4, §5
Background: Tetrazolium assays rely on reduction of a dye to a coloured formazan, in cell work by metabolically active cells.

The subject of test [4] is MDA-MB-453 breast cancer cell. Nature of the test: Viable cell count using Cell Counting Kit-F. To be noted: MB453; HER2-expressing cancer; five days of culture. How it is done:
as §1, §2, §3, §4, §5

Test [5] relates to A549 non-small cell lung cancer cell. In words: Viable cell count using Cell Counting Kit-F. The note with it: HER2-expressing cancer, five days of culture. How it is done:
as §1, §2, §3

Where [6] appears, read: Example 7, two hours, antimycin 1-0.01 nmol/L, oligomycin 100-1 ng/mL, 2,4-dinitrophenol 300-3 µmol/L.

`O=[N+]([O-])c1ccc(O)c([N+](=O)[O-])c1` [2,4-dinitrophenol]: the HER2 phosphorylation entry in test [1] (setting [6]) is “decreased dose-dependently”. The “minimum concentrations for inhibiting cell proliferation for 50% or more” value in test [2], in test [3], in test [4] and in test [5] was less than 0.02 mmol/L in each case.

antimycin: the HER2 phosphorylation entry in test [1] (Example 2, 4-fold dilution series from 1 µmol/L in 5 steps, 2 hours) is on record as “suppression of HER2 phosphorylation was confirmed”; in test [1] (setting [6]) it was “decreased dose-dependently”. The “minimum concentrations for inhibiting cell proliferation for 50% or more” value in test [2] is 1e-06 mmol/L; in test [3], 1e-06 mmol/L; in test [4] it was 1e-06 mmol/L; in test [5], 1e-05 mmol/L.
